Laboratory results as given in publication PMC12394552, “Multi-biological activity evaluation of Sn(П), Zn(П) and Fe(П) complexes based on thiocarbohydrazide schiff bases: synthesis, spectroscopic investigations and fluorescence studies” (Scientific Reports, 2025).
Values after ≈ are worked out from the molar mass of the structure shown.

How the values were obtained:
Assay type in all cases: cell-based
[1] = tested on: Escherichia coli ATCC 8739; experiment: MIC determination, broth microdilution (EUCAST adapted); conditions: ATCC8739, read-out: E. coli MIC value
Protocol: (§1) The compounds were tested against Gram-positive bacteria (Staphylococcus aureus ATCC 6538), Gram-negative bacteria (Escherichia coli ATCC 8739) and yeast (Candida albicansATCC10231). […] For bacterial strains, the EUCAST (2025) method was adapted. A few colonies of each bacterial culture previously grown on Mueller-Hinton agar for 24–48 h were suspended in normal saline and adjusted to 0.5 McFarland (1.5 × 10^8 CFU/mL). A 1/10 dilution was prepared in Mueller-Hinton broth (MHB) for the inoculation. In the wells of a 96-well flat-bottom microtiter plate, double serial dilutions of each compound were prepared in MHB. Each well was inoculated with the bacteria to achieve ca. 5 × 10^5 CFU/mL, and the plates were incubated at 37 °C overnight. Positive control (bacteria in culture medium only) and negative control (culture medium) were prepared. Each compound was tested in duplicate. After incubation, the plates were inspected visually for growth inhibition. To test the antimicrobial activity of DMSO, double serial dilutions of DMSO in broth medium were prepared and processed as the samples, but without the addition of the compounds. The antibacterial drug ciprofloxacin was used as a reference for comparison.
(§2) For Candida albicans, the same procedure applied to bacteria was used, except after inoculation, the plates were incubated at 35 °C for 24 h, and after incubation, the absorbance was measured at 530 nm using a plate reader. […] The absorbance of the wells was corrected by subtracting the absorbance of the blank. […] The antifungal drug fluconazole was used as a reference for comparison.

[2] = tested on: Staphylococcus aureus ATCC 6538; experiment: as above; conditions: ATCC6538, read-out: S. aureus MIC value
Protocol: as §1, §2

RAW 264.7 macrophages = experiment: SRB cytotoxicity on RAW 264.7 viability; conditions: Mus musculus, RAW264.7, read-out: RAW 264.7 viability IC50 value
Protocol: All malignancy cell lines were cultured in high glucose DMEM (Bio Whittaker, Verviers, Belgium) containing 10% FBS, 4-(2-hydroxyethyl)-1-piperazineethanesulfonic acid (HEPES) Buffer (10 mM), L-glutamine (2 mM), gentamicin (50 µg/mL), penicillin (100 U/mL), and streptomycin sulfate ([…]) from Sigma (St. Luis, MO, USA) whereas Sulforhodamine B was from Santa Cruz Biotechnology (Inc. Texas, USA). Surviving cancer cell lines provide numerous advantages; they provide a pure and continuous supply of cells, thus overcoming any ethical barriers concerning human tissue usage, and are cost-effective. For cytotoxicity screening, adherent monolayers of all procured malignancies’ cell lines were examined. Periodontal ligament fibroblasts (PDL) were used to determine selective cytotoxicity.
RAW 264.7 mouse macrophage cell line (ATCC® TIB-71) were cultured in high glucose DMEM supplemented with 10% (FBS), penicillin (100 U/mL), streptomycin (100 µg/mL), and L-glutamate (100 µg/mL) in a 37 °C humidified atmosphere with 95% air and 5% CO2. Confluent macrophages (2 × 10^5/well) were incubated with inflammation-priming lipopolysaccharide (LPS; Sigma, St. Luis, MO, USA) with either indomethacin as the reference agent[39] or treatment compounds at different concentrations (1.563-200 µM). Griess reagent was mixed with aliquots of cell culture media and incubated at R.T. for 10 min. Absorbance at 550 nm was determined using a microplate reader (Spectro Scan 80D UV-VIS spectrophotometer (Sedico Ltd., Nicosia, Cyprus). The nitrite concentration was determined by comparison with a sodium nitrite standard curve. SRB cytotoxicity protocol was performed for evaluation of the effect of the studied test compounds on RAW 264.7 viability.

[3] = tested on: Candida albicans ATCC10231; experiment: MIC determination, broth microdilution, absorbance 530 nm; conditions: ATCC10231, 24 h, read-out: C. albicans MIC value at 50% inhibition
Protocol: as §1, §2

O=C(O)c1cn(C2CC2)c2cc(N3CCNCC3)c(F)cc2c1=O [Ciprofloxacin, reference compound]
MIC [1]: 0.0008 µg/mL (≈ 0.00241 µM)
MIC [2]: 0.097 µg/mL (≈ 0.293 µM)

COc1ccc2c(c1)c(CC(=O)O)c(C)n2C(=O)c1ccc(Cl)cc1 [Indomethacin, reference compound]
IC50 (RAW 264.7 macrophages): > 200 µM

OC(Cn1cncn1)(Cn1cncn1)c1ccc(F)cc1F [Fluconazole, reference compound]
MIC [3]: 3.9 µg/mL (≈ 12.7 µM)
